Measurements taken from patent publication US10391095B2, “DNA-PK inhibitors” (Vertex Pharmaceuticals Incorporated, priority 2012, dated 2019).
pKi: −log10 of the molar value.

How the values were obtained:
DNA-PK = DNA-PK (Homo sapiens, UniProt P78527); experiment: DNA-PK inhibition assay (radiometric, 33P-ATP); assay type: biochemical; settings: 100 μM ATP, competitive tight-binding fit
Method in brief: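 Approx. 6 nM DNA-PK with 10 µg/mL sheared dsDNA, 0.8 mg/mL peptide substrate and 100 µM 33P-ATP in HEPES pH 7.5, 10 mM MgCl2; 45 min, phosphoric acid quench. Phosphopeptide captured on filter plates and counted by scintillation; Ki from a competitive tight-binding model fit.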

[1] = test system: DNA-PK null SCID mouse cell line; experiment: Cell viability following irradiation (CellTiter-Glo); assay type: cell-based; settings: single agent or in combination with radiation
Protocol: (§1) To evaluate the radiosensitizing effects of compounds of the invention in combination with ionizing radiation (IR), a broad panel of cell lines across multiple tumor types and genetic backgrounds were tested. Cells were incubated with DMSO or compound 578 for 30 minutes and then exposed to various doses of radiation (0, 0.5, 1, 2, 4, 6, 8, and 16 Gy). Cell viability was assessed at 6 days using CellTiter-Glo® (Promega, Inc).

H2009 = experiment: as above; assay type: cell-based; settings: compound 2.1 μM + IR, 6 days, DMSO 7.6 Gy
Protocol: as §1

pKi (DNA-PK) | EC50 IR (H2009) | Compound | effect on cell viability [1]
> 7.52 | 2.5 Gy | CNC(=O)c1ccnc2c([C@H](C)CNc3cc(-c4cnc(C)nc4)ncn3)cccc12 [Compound 578, (S)—N-methyl-8-(1-((2′-methyl-[4,5′-bipyrimidin]-6-yl)amino)propan-2-yl)quinoline-4-carboxamide] | minimal effect on cell viability
> 7.52 |  | CNC(=O)c1c(F)cnc2c([C@H](C)CNc3cc(-c4cnc(OC5CCC5)nc4)ncn3)cccc12 [Compound 981] | 
> 7.52 |  | CNC(=O)c1ccnc2c([C@H](C)CNc3cc(-c4cnc(OC5CCC5)nc4)ncn3)ccc(F)c12 [Compound 982] | 
> 7.52 |  | CNC(=O)c1ccnc2c([C@H](C)CNc3cc(-c4cnc(OC(C)C)nc4)ncn3)ccc(F)c12 [Compound 983] | 
